Format in all cases: functional
Conditions in all cases: read-out: ED50 (the source's name)

For experiment [1], the system named is MCF7. Description: Cytotoxicity against human MCF7 cells.
Experiment [2] relates to LNCaP. Kind of experiment: Cytotoxicity against human LNCAP cells.
The test system of experiment [3] is Lu1. Description: Cytotoxicity against human Lu1 cells.

The structures appear in SMILES notation. ≈ marks a conversion by molar mass, not a printed value.

With `CC1=C(C)C(=O)O[C@@H]([C@]2(C)OC(=O)[C@]34CC[C@H]5[C@@H](C[C@H]6O[C@]67[C@@H](O)C=CC(=O)[C@]57C)[C@@H]3CC[C@H]24)C1` (relative stereo) [WITHAPHYSALIN M], the EC50 in experiment [1] was found to be 1.2 µg/mL (≈ 2.49 µM); in experiment [2], 1 µg/mL (≈ 2.07 µM); in experiment [3] it was 0.22 µg/mL (≈ 0.456 µM).

Take `CC1=C(C)C(=O)O[C@@H]([C@]2(C)OC(=O)[C@]34CC[C@H]5[C@@H](C[C@H]6O[C@]67[C@@H](O)CCC(=O)[C@]57C)[C@@H]3CC[C@H]24)C1` (relative stereo) [WITHAPHYSALIN N]: the values for the EC50 in experiment [1], in experiment [2] and in experiment [3] were 15 µg/mL (≈ 31 µM), greater than 20 µg/mL and 9.3 µg/mL (≈ 19.2 µM), respectively.

`CCOC1O[C@@](C)([C@H]2CC(C)=C(C)C(=O)O2)[C@H]2CC[C@H]3[C@@H]4C[C@H]5O[C@]56[C@@H](O)C=CC(=O)[C@]6(C)[C@H]4CC[C@]123` (relative stereo) [WITHAPHYSALIN O]: the EC50 in experiment [1] came to 1 µg/mL (≈ 1.95 µM); in experiment [2], 0.9 µg/mL (≈ 1.76 µM); in experiment [3], 0.16 µg/mL (≈ 0.312 µM).

The values are drawn from ChEMBL document CHEMBL1151188, “Cytotoxic withaphysalins from the leaves of Acnistus arborescens” (2004).
